Results taken from patent publication US20250161297A1, “COMPOSITIONS AND METHODS FOR INHIBITING FSP1” (THE REGENTS OF THE UNIVERSITY OF CALIFORNIA, priority 2022, published 2025).

Target: T1, recombinant purified FSP1 (Homo sapiens, UniProt Q9BRQ8)
T1 construct: made in house; host or cells: E. coli LOBSTR-BL21 (DE3)
T1 sequence (Q9BRQ8 1-373): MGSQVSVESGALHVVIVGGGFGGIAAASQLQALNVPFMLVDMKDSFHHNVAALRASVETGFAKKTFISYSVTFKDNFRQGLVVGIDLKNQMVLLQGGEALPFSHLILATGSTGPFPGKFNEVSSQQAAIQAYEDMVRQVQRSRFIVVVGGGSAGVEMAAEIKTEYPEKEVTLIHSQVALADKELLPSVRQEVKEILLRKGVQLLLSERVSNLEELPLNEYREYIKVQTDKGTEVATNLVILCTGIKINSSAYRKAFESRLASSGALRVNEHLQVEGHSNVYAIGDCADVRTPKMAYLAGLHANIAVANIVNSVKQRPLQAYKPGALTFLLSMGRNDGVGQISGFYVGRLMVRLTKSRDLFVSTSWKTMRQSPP
Experiment: FSP1 enzyme kinetics with NADH, CoQ-coumarin and CoQ1
Assay type: biochemical
Description: FSP1 Kinetics (NADH): To measure FSP1 kinetics, FSEN1 was dissolved and diluted in DMSO, and recombinant purified FSP1 was diluted in PBS. 0.5 μL FSEN1 and 12.5 μL FSP1 were mixed and incubated for 30 minutes in a NBS polystyrene 384-well plate (Corning Ref: 3640) at RT. Vehicle control wells included 0.5 μL DMSO and were absent of any FSEN1. NADH (Millipore Cat: 481913) was then dissolved and diluted in PBS and added to the plate wells. CoQ-Coumarin (Cayman Item: 29554) was dissolved in DMSO, diluted in PBS, and added to the plate wells to start the reaction. Final well volume was 25 μL, and final concentrations were 25 nM FSP1, 10UM CoQ-Coumarin, 1-50 μM NADH, and 50-500 nM FSEN1. […] Reduced CoQ-Coumarin fluorescence (Ex: 405 nm, Em: 475 nm) was measured as read-out of enzymatic product formation on a kinetic cycle with an interval time of 20 seconds at RT. […] Raw data from 3 biological replicates were then plotted and initial slopes were calculated using a linear regression in prism (GraphPad).
FSP1 Kinetics (CoQ-Coumarin): To measure FSP1 kinetics, FSEN1 was dissolved and diluted in DMSO, and recombinant purified FSP1 was diluted in PBS. […] Reduced CoQ-Coumarin fluorescence (Ex: 405 nm, Em: 475 nm) was measured as read-out of enzymatic product formation on a kinetic cycle with an interval time of 15 seconds at RT. […]

## COc1ccc(N2CCN(Cc3cn4c(-c5ccc(Br)cc5)nnc4s3)CC2)cc1 [FSEN1]
As FSEN1 concentrations increased
  change in Kcat: decrease in Kcat values
Increasing NADH and CoQ-coumarin, Lineweaver-Burke plots parallel
  mechanism of FSP1 inhibition: uncompetitive inhibitor
